This is an account of results in patent publication US8741884B2, “Compounds for the treatment of hepatitis C” (priority 2010, dated 2014).

Structures are written as SMILES. pEC50: −log10 of the molar value.

In the first assay the test system is HCV pseudoparticles (genotype 1a HCV E1 and E2 envelope, H77C isolate). The assay can be described thus: microbe, parasite or virus in culture. In kind it is cell-based. The following applies: Hepatitis C virus, Huh-7, 48 h, class symbol; HCV pseudoparticles genotype 1a (H77C), Huh7 cells, luciferase 2 days after infection, average of duplicates.
The pEC50 is the EC50 on a negative log10 scale, so that one unit is a factor of ten. Higher therefore signals a low EC50. `CC(C)(C)OC(=O)N1CCCOc2ccc(cc2)CNc2nc(nc(OCC(F)(F)F)n2)Nc2ccc(C(=O)NCC3(CN4CCCC4)CC3)c(c2)OCCC1` [Example 3003]: the pEC50 is 7.00 to 10.00.
Compound `COC(=O)N1CCCOc2ccc(cc2)CNc2nc(nc(OCC(F)(F)F)n2)Nc2ccc(C(=O)NCC3(CN4CCCC4)CC3)c(c2)OCCC1` [Example 3004] showed a pEC50 of 7.00 to 10.00.
Same read-out and setting: the same measure for `CCOC(=O)N1CCCOc2ccc(cc2)CNc2nc(nc(OCC(F)(F)F)n2)Nc2ccc(C(=O)NCC3(CN4CCCC4)CC3)c(c2)OCCC1` [Example 3005]: 7.00 to 10.00; for `CC(C)OC(=O)N1CCCOc2ccc(cc2)CNc2nc(nc(OCC(F)(F)F)n2)Nc2ccc(C(=O)NCC3(CN4CCCC4)CC3)c(c2)OCCC1` [Example 3006]: 7.00 to 10.00; for `CNC(=O)N1CCCOc2ccc(cc2)CNc2nc(nc(OCC(F)(F)F)n2)Nc2ccc(C(=O)NCC3(CN4CCCC4)CC3)c(c2)OCCC1` [Example 3007]: 7.00 to 10.00.
The same measure, in the same setting: the same measure for `CCNC(=O)N1CCCOc2ccc(cc2)CNc2nc(nc(OCC(F)(F)F)n2)Nc2ccc(C(=O)NCC3(CN4CCCC4)CC3)c(c2)OCCC1` [Example 3008]: 7.00 to 10.00; for `CC(C)NC(=O)N1CCCOc2ccc(cc2)CNc2nc(nc(OCC(F)(F)F)n2)Nc2ccc(C(=O)NCC3(CN4CCCC4)CC3)c(c2)OCCC1` [Example 3009]: 7.00 to 10.00; for `CN1CCCOc2ccc(cc2)CNc2nc(nc(OCC(F)(F)F)n2)Nc2ccc(C(=O)NCC3(CN4CCCC4)CC3)c(c2)OCCC1` [Example 3010]: 7.00 to 10.00.
`CCN1CCCOc2ccc(cc2)CNc2nc(nc(OCC(F)(F)F)n2)Nc2ccc(C(=O)NCC3(CN4CCCC4)CC3)c(c2)OCCC1` [Example 3011] gave a pEC50 of 7.00 to 10.00.
Still for that read-out and setting: in the case of `CCCN1CCCOc2ccc(cc2)CNc2nc(nc(OCC(F)(F)F)n2)Nc2ccc(C(=O)NCC3(CN4CCCC4)CC3)c(c2)OCCC1` [Example 3012] it was 7.00 to 10.00; in that of `CC(C)CN1CCCOc2ccc(cc2)CNc2nc(nc(OCC(F)(F)F)n2)Nc2ccc(C(=O)NCC3(CN4CCCC4)CC3)c(c2)OCCC1` [Example 3013], 7.00 to 10.00.
Still for that read-out and setting: in the case of `CCCCN1CCCOc2ccc(cc2)CNc2nc(nc(OCC(F)(F)F)n2)Nc2ccc(C(=O)NCC3(CN4CCCC4)CC3)c(c2)OCCC1` [Example 3014] it was 7.00 to 10.00; in that of `COC(=O)c1ccc2cc1OCCCCNCCCOc1ccc(cc1)CNc1nc(nc(OCC(F)(F)F)n1)N2` [Example 3015], 7.00 to 10.00; in that of `CC(C)(C)OC(=O)N1CCCCOc2cc(ccc2C(=O)NCC2(CN3CCCC3)CC2)Nc2nc(nc(OCC(F)(F)F)n2)NCc2ccc(cc2)OCCC1` [Example 3016], 7.00 to 10.00.
With `O=C(NCC1(CN2CCCC2)CC1)c1ccc2cc1OCCCCNCCCOc1ccc(cc1)CNc1nc(nc(OCC(F)(F)F)n1)N2` [Example 3017], the pEC50 was 7.00 to 10.00.
Still for that read-out and setting: in the case of `CC(C)(C)NC(=O)N1CCCCOc2cc(ccc2C(=O)NCC2(CN3CCCC3)CC2)Nc2nc(nc(OCC(F)(F)F)n2)NCc2ccc(cc2)OCCC1` [Example 3018] it was 7.00 to 10.00.
As for `COC(=O)N1CCCCOc2cc(ccc2C(=O)NCC2(CN3CCCC3)CC2)Nc2nc(nc(OCC(F)(F)F)n2)NCc2ccc(cc2)OCCC1` [Example 3019], the pEC50 was 7.00 to 10.00.
As to `CCOC(=O)N1CCCCOc2cc(ccc2C(=O)NCC2(CN3CCCC3)CC2)Nc2nc(nc(OCC(F)(F)F)n2)NCc2ccc(cc2)OCCC1` [Example 3020], the pEC50 is 7.00 to 10.00.
`CC(C)OC(=O)N1CCCCOc2cc(ccc2C(=O)NCC2(CN3CCCC3)CC2)Nc2nc(nc(OCC(F)(F)F)n2)NCc2ccc(cc2)OCCC1` [Example 3021]: the pEC50 is 7.00 to 10.00.
The same measure, in the same setting: the same measure for `CC(=O)N1CCCCOc2cc(ccc2C(=O)NCC2(CN3CCCC3)CC2)Nc2nc(nc(OCC(F)(F)F)n2)NCc2ccc(cc2)OCCC1` [Example 3022]: 7.00 to 10.00.
On the same count and under the same terms, the same measure for `CC(C)C(=O)N1CCCCOc2cc(ccc2C(=O)NCC2(CN3CCCC3)CC2)Nc2nc(nc(OCC(F)(F)F)n2)NCc2ccc(cc2)OCCC1` [Example 3023]: 7.00 to 10.00; for `CC(C)(C)OC(=O)N1CCCOc2cccc(c2)CNc2nc(nc(OCC(F)(F)F)n2)Nc2ccc(C(=O)NCC3(CN4CCCC4)CC3)c(c2)OCCC1` [Example 3024]: 6.00 to 7.00; for `O=C(NCC1(CN2CCCC2)CC1)c1ccc2cc1OCCCNCCCOc1cccc(c1)CNc1nc(nc(OCC(F)(F)F)n1)N2` [Example 3025]: 7.00 to 10.00.
Same read-out and setting: in the case of `O=C(NCC1(CN2CCCC2)CC1)c1ccc2cc1OCCCCCCNc1nc(nc(OCC(F)(F)F)n1)N2` [Example 4001] it was 4.30 to 6.00; in that of `O=C(NCC1(CN2CCCC2)CC1)c1ccc2cc1OCCCNCCCCCCCCNc1nc(nc(OCC(F)(F)F)n1)N2` [Example 5002], 7.00 to 10.00.

Still in this assay, the particulars now being: Hepatitis C virus, Huh-7, 48 h, numeric value; HCV pseudoparticles genotype 1a (H77C), Huh7 cells, luciferase 2 days after infection, average of duplicates.
With `CCNC(=O)N1CCCOc2ccc(cc2)CNc2nc(nc(OCC(F)(F)F)n2)Nc2ccc(C(=O)NCC3(CN4CCCC4)CC3)c(c2)OCCC1` [Example 3008], the pEC50 is 8.27.
The same measure, in the same setting: the same measure for `COC(=O)N1CCCCOc2cc(ccc2C(=O)NCC2(CN3CCCC3)CC2)Nc2nc(nc(OCC(F)(F)F)n2)NCc2ccc(cc2)OCCC1` [Example 3019]: 7.99; for `O=C(NCC1(CN2CCCC2)CC1)c1ccc2cc1OCCCCCCNc1nc(nc(OCC(F)(F)F)n1)N2` [Example 4001]: 4.37.
